According to BigSolDB 2.1:

O=C[C@H](O)[C@@H](O)[C@H](O)[C@H](O)CO
Conditions	solubility (mole fraction)
in n-decanol, 348.15 K	0.000902
in n-decanol, 353.15 K	0.000984
in n-decanol, 357.15 K	0.00119
in n-decanol, 367.15 K	0.00154
in n-decanol, 372.15 K	0.00178
in n-decanol, 377.15 K	0.00204
in n-decanol, 382.15 K	0.00239
in n-decanol, 387.15 K	0.00264
in n-decanol, 392.15 K	0.00327
in n-dodecanol, 349.15 K	0.000762
in n-dodecanol, 355.15 K	0.000802
in n-dodecanol, 360.15 K	0.000865
in n-dodecanol, 365.15 K	0.0011
in n-dodecanol, 370.15 K	0.0013
in n-dodecanol, 375.15 K	0.0014
in n-dodecanol, 382.15 K	0.00156
in n-dodecanol, 387.15 K	0.00186
in n-dodecanol, 393.15 K	0.00203
in n-octanol, 345.15 K	0.00098
in n-octanol, 355.15 K	0.00153
in n-octanol, 364.15 K	0.00192
in n-octanol, 369.15 K	0.00228
in n-octanol, 374.15 K	0.00241
in n-octanol, 379.15 K	0.0029
in n-octanol, 383.15 K	0.00341
